{"source": "patent US20220218647A1", "about": "“DIETARY BUTYRATE” (SOCIETE DES PRODUITS NESTLE S.A., priority 2019, published 2022)", "key": {"[1]": {"tested_on": "rabbit gastric lipase (RGL) followed by porcine pancreatic lipase (PPL)", "assay": "Sequential in vitro digestion in simulated gastric fluid (SGF) followed by SIF, pH-stat", "format": "in vitro ADME", "description": "(§1) An emulsion was then created using an ultrasonic probe homogeniser."}, "[2]": {"molecular_target": "T1, porcine pancreatic lipase (PPL) (Sus scrofa, UniProt P00591)", "T1 sequence (P00591 1-450)": "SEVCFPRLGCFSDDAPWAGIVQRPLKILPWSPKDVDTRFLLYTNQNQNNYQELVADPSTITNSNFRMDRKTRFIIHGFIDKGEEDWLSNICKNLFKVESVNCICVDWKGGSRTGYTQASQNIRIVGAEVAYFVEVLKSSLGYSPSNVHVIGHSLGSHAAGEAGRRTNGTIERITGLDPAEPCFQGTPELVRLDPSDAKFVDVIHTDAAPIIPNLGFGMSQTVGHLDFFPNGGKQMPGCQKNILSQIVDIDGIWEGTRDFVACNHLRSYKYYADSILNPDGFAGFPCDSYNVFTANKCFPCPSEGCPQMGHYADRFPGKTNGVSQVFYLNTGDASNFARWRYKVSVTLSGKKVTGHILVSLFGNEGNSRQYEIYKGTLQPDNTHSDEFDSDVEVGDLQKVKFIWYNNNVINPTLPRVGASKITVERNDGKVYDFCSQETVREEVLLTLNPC", "T1 sequence (P02703 23-112 partner)": "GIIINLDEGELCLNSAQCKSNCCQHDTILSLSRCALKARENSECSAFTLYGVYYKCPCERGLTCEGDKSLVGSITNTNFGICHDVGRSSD", "details": "pig, 3 h, pH 11.5", "description": "Because many fatty acids are only partially ionised at pH 6.8, direct titration gives only partial picture of the extent of lipid digestion, instead back titration to pH 11.5 or GC-FAME analysis is required to estimate the full extent of digestion."}, "[3]": {"molecular_target": "T1, porcine pancreatic lipase (PPL)", "assay": "In vitro lipid digestion in simulated intestinal fluid (SIF), pH-stat", "format": "in vitro ADME", "set-up": "by porcine pancreatic lipase (from pancreatin); from tissue; host or cells: pancreatin (pig pancreas extract)", "details": "SIF alone; emulsion containing 200 mg fat, pH 6.8, 37° C.", "description": "as §1"}}, "data": [{"compound": "CCCC(=O)OCC(COC(=O)CCC)OC(=O)CCC", "note": "[tributyrin]", "values": [{"measurement": "initial lipolysis rate in SIF compartment", "setting": "[1]; SGF-SIF sequential digestion, 200 mg fat", "value": "44.1 ± 8.8", "unit": "µmol/min"}, {"measurement": "hydrolysis in the stomach", "setting": "[1]; gastric compartment of the model", "value": "extensive hydrolysis"}, {"measurement": "lipolysis by gastric lipase", "setting": "[1]; indicated by decreased total fatty acid release during SIF lipolysis after pre-exposure to RGL in SGF", "value": "~60", "unit": "%"}, {"measurement": "extent of digestion", "setting": "[2]", "value": "101.5±0.9", "unit": "%"}, {"measurement": "initial rate of lipolysis", "setting": "[3]", "value": "223 ± 59", "unit": "µmol/min"}]}]}
